Source: publication PMC11013491, “Triterpenoids from the Leaves of Diospyros digyna and Their PTP1B Inhibitory Activity” (Molecules, 2024)

Biological target: T1, PTP1B (Homo sapiens, UniProt P18031)
T1 construct: purchased Abcam, Cambridge, UK
T1 sequence (P18031 1-435): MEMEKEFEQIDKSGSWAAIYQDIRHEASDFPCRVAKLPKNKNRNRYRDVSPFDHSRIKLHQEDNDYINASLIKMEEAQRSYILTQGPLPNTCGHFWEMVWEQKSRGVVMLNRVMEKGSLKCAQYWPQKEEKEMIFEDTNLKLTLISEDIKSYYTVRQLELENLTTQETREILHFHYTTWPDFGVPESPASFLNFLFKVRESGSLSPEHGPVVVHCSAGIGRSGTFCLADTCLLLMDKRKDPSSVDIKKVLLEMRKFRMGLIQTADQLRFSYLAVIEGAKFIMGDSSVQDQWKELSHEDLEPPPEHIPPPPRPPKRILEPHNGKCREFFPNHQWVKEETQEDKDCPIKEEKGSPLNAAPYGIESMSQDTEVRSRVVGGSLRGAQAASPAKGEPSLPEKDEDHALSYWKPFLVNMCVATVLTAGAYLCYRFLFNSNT
Experiment: PTP1B inhibition assay (pNPP substrate)
Type: biochemical
Details: human recombinant PTP1B, 37 °C, 30 min, triplicate, means ± SD, read-out: PTP1B inhibitory activity IC50
Procedure: The inhibitory activity of the isolated compounds against PTP1B (Abcam, Cambridge, UK, human recombinant) was assayed according to the method reported previously. The reagent p-nitrophenyl phosphate (pNPP) was used as the substrate, and oleanolic acid was used as the positive control. In brief, a 100 μL assay mixture containing 1 μg/mL PTP1B, samples, 4 mM pNPP, 55 mM NaCl, 2.2 mM DTT, 1.1 mM EDTA, and […] in 11 mM Tris-HCl, pH 7.5, was incubated at 37 °C for 30 min in a 96-well plate. The absorbance of 405 nm was measured by a microplate reader. Data were analyzed by GraphPad Prism v.10.2.0 software. All data were obtained in triplicate and presented as means ± SD.

SMILES	IC50
C=C1CCC2(C(=O)O)CCC3(C)C(=CCC4C5(C)CC(O)C(OC(=O)C=Cc6ccc(O)cc6)C(C)(C)C5CCC43C)C2C1C (stereo not drawn) [Compound 4, 3β-trans-p-coumaroyloxy-2α-hydroxy-12,20(30)-ursadien-28-oic acid]	48.7 ± 5.17 µM
C=C1CCC2(C(=O)O)CCC3(C)C(=CCC4C5(C)CC(O)C(OC(=O)C=Cc6ccc(O)c(OC)c6)C(C)(C)C5CCC43C)C2C1C (stereo not drawn) [Compound 5, 3β-trans-feruloyloxy-2α-hydroxy-12,20(30)-ursadien-28-oic acid]	23.7 ± 0.73 µM
C=C1CC[C@]2(C(=O)O)CC[C@]3(C)C(=CC[C@@H]4[C@@]5(C)C[C@@H](O)[C@@H](OC(=O)/C=C/c6ccc(O)c(OC)c6)C(C)(C)[C@@H]5CC[C@]43C)[C@@H]2[C@H]1C [Compound 6, 3α-trans-feruloyloxy-2α-hydroxy-12,20(30)-ursadien-28-oic acid]	34 ± 4.88 µM
C[C@H]1[C@H](C)CC[C@]2(C(=O)O)CC[C@]3(C)C(=CC[C@@H]4[C@@]5(C)C[C@@H](O)[C@H](OC(=O)/C=C\c6ccc(O)cc6)C(C)(C)[C@@H]5CC[C@]43C)[C@H]12 [Compound 10, 3β-O-cis-p-coumaroyl-2α-hydroxy-urs-12-en-28-oic acid]	19.2 ± 0.22 µM
C[C@H]1[C@H](C)CC[C@]2(C(=O)O)CC[C@]3(C)C(=CC[C@@H]4[C@@]5(C)C[C@@H](O)[C@H](OC(=O)/C=C/c6ccc(O)cc6)C(C)(C)[C@@H]5CC[C@]43C)[C@H]12 [Compound 11, jacoumaric acid]	26.2 ± 1.31 µM
COc1cc(/C=C\C(=O)O[C@H]2[C@H](O)C[C@]3(C)[C@H]4CC=C5[C@@H]6[C@@H](C)[C@H](C)CC[C@]6(C(=O)O)CC[C@@]5(C)[C@]4(C)CC[C@H]3C2(C)C)ccc1O [Compound 12, 3β-O-cis-feruloyl-2α-hydroxy-urs-12-en-28-oic acid]	16.2 ± 0.57 µM
COc1cc(/C=C/C(=O)O[C@H]2[C@H](O)C[C@]3(C)[C@H]4CC=C5[C@@H]6[C@@H](C)[C@H](C)CC[C@]6(C(=O)O)CC[C@@]5(C)[C@]4(C)CC[C@H]3C2(C)C)ccc1O [Compound 13, 3β-O-trans-feruloyl-2α-hydroxy-urs-12-en-28-oic acid]	10.3 ± 1.21 µM
C=C1CC[C@]2(C(=O)O)CC[C@]3(C)C(=CC[C@@H]4[C@@]5(C)C[C@@H](O)[C@@H](OC(=O)/C=C/c6ccc(O)cc6)C(C)(C)[C@@H]5CC[C@]43C)[C@@H]2[C@H]1C [Compound 15, 3α-trans-coumaroyloxy-2α-hydroxy-12,20(30)-dien-28-ursolic acid]	17.1 ± 1.67 µM
